Assay results as given in paper PMC9352670 (2022).

Legend:
Test in all cases: microscale thermophoresis
[1] = system: Dm-LS-3 (DNA, aptamer, HFNAP: side-chain on 5' nucleobase of each coding trinucleotide, positions 19,22,25,...,61 (codon key Figure 1B)) GAAAGCAGGACTGGAGATTCGCATCGCTACTCCTCCTTGCCGTCCCACCGCCCACTGCTACCTCAGACCGAACTAGAGCTT; conditions: 5 mM KCl, 1 mM MgCl2, 1 mM CaCl2 added; HBS-P+ buffer, 25 °C
[2] = system: Dm-LS-4 (DNA, aptamer, HFNAP: side-chain on 5' nucleobase of each coding trinucleotide, positions 19,22,25,...,61 (codon key Figure 1B)) GAAAGCAGGACTGGAGATCCGCGCCGCTTTTATCCCTAGTCCCTCTTACCCTACTTCCCCTTACAGACCGAACTAGAGCTT; conditions: 5 mM KCl, 1 mM MgCl2, 1 mM CaCl2 added; HBS-P+ buffer, 25 °C
[3] = system: Dm-HS-7 (DNA, aptamer, HFNAP: side-chain on 5' nucleobase of each coding trinucleotide, positions 19,22,25,...,61 (codon key Figure 1B)) GAAAGCAGGACTGGAGATCGATTGCAGTTACGTTGCTAGTCCCCTTGATCACCTCCGTCACCTCAGACCGAACTAGAGCTT; conditions: 5 mM KCl, 1 mM MgCl2, 1 mM CaCl2 added; HBS-P+ buffer, 25 °C
[4] = system: Dm-HS-8 (DNA, aptamer, HFNAP: side-chain on 5' nucleobase of each coding trinucleotide, positions 19,22,25,...,61 (codon key Figure 1B)) GAAAGCAGGACTGGAGATCGATTGCAGTTACGTCTCCCCTGCCCACCTTATTGCCATTCATAACAGACCGAACTAGAGCTT; conditions: 5 mM KCl, 1 mM MgCl2, 1 mM CaCl2 added; HBS-P+ buffer, 25 °C
[5] = system: Dm-HS-9 (DNA, aptamer, HFNAP: side-chain on 5' nucleobase of each coding trinucleotide, positions 19,22,25,...,61 (codon key Figure 1B)) GAAAGCAGGACTGGAGATCGATTATTGTGATTTTGATCTCCCCCATATCCCCTTCCCTACTCGCAGACCGAACTAGAGCTT; conditions: 5 mM KCl, 1 mM MgCl2, 1 mM CaCl2 added; HBS-P+ buffer, 25 °C
[6] = system: Dm-CVAE-without-selection-2 (DNA, aptamer, HFNAP: side-chain on 5' nucleobase of each coding trinucleotide, positions 19,22,25,...,61 (codon key Figure 1B)) GAAAGCAGGACTGGAGATTCGTTACCGCTGTTGCTCTCTTCTCAGTTGTGCTCCTTTTCCCCCCAGACCGAACTAGAGCTT; conditions: 5 mM KCl, 1 mM MgCl2, 1 mM CaCl2 added; HBS-P+ buffer, 25 °C
[7] = system: Dm-CCS-2 (DNA, aptamer, HFNAP: side-chain on 5' nucleobase of each coding trinucleotide, positions 19,22,25,...,61 (codon key Figure 1B)) GAAAGCAGGACTGGAGATCGTTTATGGCCACCTCCTTGACAGTTGCCCTGCCTCCAGTCCTCCCAGACCGAACTAGAGCTT; conditions: 5 mM KCl, 1 mM MgCl2, 1 mM CaCl2 added; HBS-P+ buffer, 25 °C
[8] = system: Dm-reference-based-random-after-selection-4 (DNA, other, HFNAP: side-chain on 5' nucleobase of each coding trinucleotide, positions 19,22,25,...,61 (codon key Figure 1B)) GAAAGCAGGACTGGAGATCATCCTTCCTTATAGCATCGGCCGTTTCCGTTGCCATCCCCCCCACAGACCGAACTAGAGCTT; conditions: 5 mM KCl, 1 mM MgCl2, 1 mM CaCl2 added; HBS-P+ buffer, 25 °C
[9] = system: Dm-HS-4 ∆ s.c. (DNA, aptamer, none (no side-chains)) GAAAGCAGGACTGGAGATCGATTCTGGTGCTGTTGATCTCCGCCATTGTGCTCCTACCCTTCGCAGACCGAACTAGAGCTT; conditions: 5 mM KCl, 1 mM MgCl2, 1 mM CaCl2 added; HBS-P+ buffer, 25 °C
[10] = system: Dm-HS-7 ∆ s.c. (DNA, aptamer, none (no side-chains)) GAAAGCAGGACTGGAGATCGATTGCAGTTACGTTGCTAGTCCCCTTGATCACCTCCGTCACCTCAGACCGAACTAGAGCTT; conditions: 5 mM KCl, 1 mM MgCl2, 1 mM CaCl2 added; HBS-P+ buffer, 25 °C
[11] = system: Dm-HS-1 CCA ∆ s.c. (DNA, aptamer, as Dm-HS-1 but no side-chain at 43: fluorophenyl at 19; allylamine at 22,25,37; alcohol at 28,34,49; phenol at 31,46; cyclopentyl at 40; cyclopropyl at 58; imidazole at 52,55,61) GAAAGCAGGACTGGAGATCGATTCTGGTGCTGTTGATCTCCGCCATTGTGCTCCTACCCTTCACAGACCGAACTAGAGCTT; conditions: 5 mM KCl, 1 mM MgCl2, 1 mM CaCl2 added; HBS-P+ buffer, 25 °C
[12] = system: Dm-HS-1 TGT ∆ s.c. (DNA, aptamer, as Dm-HS-1 but no side-chain at 31: fluorophenyl at 19; allylamine at 22,25,37; alcohol at 28,34,49; phenol at 46; cyclopentyl at 40; cyclopropyl at 43,58; imidazole at 52,55,61) GAAAGCAGGACTGGAGATCGATTCTGGTGCTGTTGATCTCCGCCATTGTGCTCCTACCCTTCACAGACCGAACTAGAGCTT; conditions: 5 mM KCl, 1 mM MgCl2, 1 mM CaCl2 added; HBS-P+ buffer, 25 °C
[13] = system: Dm-HS-1 TTG ∆ s.c. (DNA, aptamer, no side-chain at 46 (codon 10 TTG); others as HFNAP: fluorophenyl at 19; allylamine at 22, 25, 37; alcohol at 28, 34, 49; phenol at 31; cyclopentyl at 40; cyclopropyl at 43, 58; imidazole at 52, 55, 61) GAAAGCAGGACTGGAGATCGATTCTGGTGCTGTTGATCTCCGCCATTGTGCTCCTACCCTTCACAGACCGAACTAGAGCTT; conditions: 5 mM KCl, 1 mM MgCl2, 1 mM CaCl2 added to HBS-P+; HBS-P+ buffer, 25 °C
[14] = system: Dm-HS-1 TCA ∆ s.c. (DNA, aptamer, no side-chain at 61 (codon 15 TCA); others as HFNAP: fluorophenyl at 19; allylamine at 22, 25, 37; alcohol at 28, 34, 49; phenol at 31, 46; cyclopentyl at 40; cyclopropyl at 43, 58; imidazole at 52, 55) GAAAGCAGGACTGGAGATCGATTCTGGTGCTGTTGATCTCCGCCATTGTGCTCCTACCCTTCACAGACCGAACTAGAGCTT; conditions: 5 mM KCl, 1 mM MgCl2, 1 mM CaCl2 added to HBS-P+; HBS-P+ buffer, 25 °C

**Q.** Which Kd [1] does the source give for `COc1cccc2c1C(=O)c1c(O)c3c(c(O)c1C2=O)C[C@@](O)(C(C)=O)C[C@@H]3O[C@H]1C[C@H](N)[C@H](O)[C@H](C)O1` here?
**A.** 2230 ± 100 nM

**Q.** And the Kd [2]?
**A.** 1980 ± 70 nM

**Q.** And the Kd [3]?
**A.** 18.09 ± 5.2 nM

**Q.** And the Kd [4]?
**A.** 32.26 ± 8.9 nM

**Q.** What about the Kd [5] of the same compound?
**A.** 1.13 ± 0.45 nM

**Q.** And the Kd [6]?
**A.** 15.5 ± 1.3 nM

**Q.** And the Kd [7]?
**A.** 16.6 ± 14.0 nM

**Q.** What about the Kd [8] of the same compound?
**A.** 107900 ± 6900 nM

**Q.** And the “Kd ∆ side-chains” value [9]?
**A.** 1810 ± 57 nM

**Q.** What about the “Kd ∆ side-chains” value [10] of the same compound?
**A.** 2490 ± 120 nM

**Q.** And the Kd [11]?
**A.** 158.8 ± 14.2 nM

**Q.** And the Kd [12]?
**A.** 6.7 ± 1.0 nM

**Q.** What about the Kd [13] of the same compound?
**A.** 32.6 ± 5.0 nM

**Q.** What about the Kd [14] of the same compound?
**A.** 10.1 ± 1.6 nM
